Source: ChEMBL document CHEMBL1138902, “New 3-alkylamino-4H-thieno-1,2,4-thiadiazine 1,1-dioxide derivatives activate ATP-sensitive potassium channels of pancreatic beta cells” (J Med Chem, 2006)
pEC50, pIC50: −log10 of the molar value.

Assays:
Rattus norvegicus [1] = assay: Reduction in plasma insulin level in anaesthetized Sprague-Dawley rat at 3 mg/kg, iv; type: functional
Rattus norvegicus [2] = assay: Reduction in plasma insulin level in po dosed Zucker obese rat after 2 hrs; type: functional; details: read-out: ID50 (the source's name)
Beta-TC3 = assay: Repolarization of beta-TC3 cells; type: functional, cell-based, Mus musculus; details: for pEC50 / Emax: Mus musculus, Beta-TC3; for pEC50: read-out: EC50; for EC50: beta-tc3
Rattus norvegicus [3] = organism: Rattus norvegicus; assay: Inhibition of glucose-stimulated insulin release in Wistar rat islets; type: functional, organism-based
Rattus norvegicus [4] = organism: Rattus norvegicus; assay: Relaxation of precontracted Wistar rat aorta rings; type: functional, organism-based; details: for pEC50: Rattus norvegicus, Aorta
[5] = biological target: T1, Sulfonylurea receptor 1, Kir6.2 (Homo sapiens, UniProt Q09428+Q14654); assay: Repolarization of HEK293 cells expressing Kir6.2/SUR1 KATP channels; type: functional, cell-based
T1 sequence (Q14654 whole entry): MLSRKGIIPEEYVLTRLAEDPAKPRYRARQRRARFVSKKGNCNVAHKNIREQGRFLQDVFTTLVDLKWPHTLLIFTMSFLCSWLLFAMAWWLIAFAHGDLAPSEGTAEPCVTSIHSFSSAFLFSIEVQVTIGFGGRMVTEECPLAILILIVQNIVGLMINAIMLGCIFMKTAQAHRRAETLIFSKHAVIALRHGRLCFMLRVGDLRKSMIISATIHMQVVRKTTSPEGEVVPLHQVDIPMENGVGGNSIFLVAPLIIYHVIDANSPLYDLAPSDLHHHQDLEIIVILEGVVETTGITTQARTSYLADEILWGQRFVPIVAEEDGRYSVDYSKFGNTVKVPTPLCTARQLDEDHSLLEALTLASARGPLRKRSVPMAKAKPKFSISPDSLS
T1 sequence (Q09428 whole entry): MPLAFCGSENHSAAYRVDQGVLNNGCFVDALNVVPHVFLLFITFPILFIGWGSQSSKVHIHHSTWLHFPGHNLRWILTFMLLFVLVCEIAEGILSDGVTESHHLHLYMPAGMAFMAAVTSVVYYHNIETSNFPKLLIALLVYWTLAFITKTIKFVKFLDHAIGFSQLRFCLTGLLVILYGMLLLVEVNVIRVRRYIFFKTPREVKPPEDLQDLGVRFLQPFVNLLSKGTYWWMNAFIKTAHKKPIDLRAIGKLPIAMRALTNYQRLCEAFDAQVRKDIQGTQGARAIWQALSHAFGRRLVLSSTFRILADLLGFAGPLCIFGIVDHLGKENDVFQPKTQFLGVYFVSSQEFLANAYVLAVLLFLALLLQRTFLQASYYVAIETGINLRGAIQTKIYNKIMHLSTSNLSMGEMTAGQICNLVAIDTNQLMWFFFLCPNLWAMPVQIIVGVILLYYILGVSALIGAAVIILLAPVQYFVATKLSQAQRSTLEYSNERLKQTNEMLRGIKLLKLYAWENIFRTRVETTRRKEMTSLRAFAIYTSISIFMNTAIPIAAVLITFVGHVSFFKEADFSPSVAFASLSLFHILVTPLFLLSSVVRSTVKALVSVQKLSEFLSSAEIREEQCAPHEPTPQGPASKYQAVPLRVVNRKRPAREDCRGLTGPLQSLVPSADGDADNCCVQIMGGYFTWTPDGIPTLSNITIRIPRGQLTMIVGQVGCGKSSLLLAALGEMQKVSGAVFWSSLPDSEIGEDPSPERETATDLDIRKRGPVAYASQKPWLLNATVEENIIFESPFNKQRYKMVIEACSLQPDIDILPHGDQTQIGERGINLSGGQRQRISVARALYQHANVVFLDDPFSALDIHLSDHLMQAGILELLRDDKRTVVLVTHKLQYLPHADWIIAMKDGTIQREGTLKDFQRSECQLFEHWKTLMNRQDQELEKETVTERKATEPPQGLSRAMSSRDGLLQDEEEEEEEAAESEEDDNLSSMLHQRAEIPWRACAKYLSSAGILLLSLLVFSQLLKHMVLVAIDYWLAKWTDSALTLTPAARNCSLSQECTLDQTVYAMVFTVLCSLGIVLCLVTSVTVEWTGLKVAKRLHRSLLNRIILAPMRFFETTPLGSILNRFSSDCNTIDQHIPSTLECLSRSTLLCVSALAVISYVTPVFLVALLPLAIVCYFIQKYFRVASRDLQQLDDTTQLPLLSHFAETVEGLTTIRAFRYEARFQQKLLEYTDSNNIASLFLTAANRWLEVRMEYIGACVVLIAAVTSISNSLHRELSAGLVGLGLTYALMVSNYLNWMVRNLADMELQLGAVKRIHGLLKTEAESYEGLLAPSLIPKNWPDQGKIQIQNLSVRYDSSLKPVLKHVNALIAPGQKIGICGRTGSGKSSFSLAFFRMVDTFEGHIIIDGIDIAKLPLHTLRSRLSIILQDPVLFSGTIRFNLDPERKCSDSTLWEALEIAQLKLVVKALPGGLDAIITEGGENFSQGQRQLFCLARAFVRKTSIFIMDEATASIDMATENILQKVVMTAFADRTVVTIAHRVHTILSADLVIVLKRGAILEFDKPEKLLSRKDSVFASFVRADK

Beta-TC6 [6] = assay: Inhibition of glucose-stimulated insulin release in betaTC6 cells; type: functional, cell-based; details: Mus musculus
Beta-TC6 [7] = assay: Inhibition of glucose-stimulated insulin release in beta-TC6 cells at 10 uM; type: functional, Mus musculus
[8] = Plasma concentration in Sprague-Dawley rat after 30 mins; type: ADME, organism-based
[9] = Cmax in Sprague-Dawley rat at 2.48 mg/kg, po; type: ADME, organism-based; design: dose 2.48 mg/kg, route oral; details: in vivo
[10] = Tmax in Sprague-Dawley rat at 2.48 mg/kg, po or 1.08 mg/kg, iv; type: ADME, organism-based; details: in vivo
[11] = Oral bioavailability in Sprague-Dawley rat at 2.48 mg/kg, po; type: ADME, organism-based; details: in vivo
[12] = Clearance in Sprague-Dawley rat at 2.48 mg/kg, po or 1.08 mg/kg, iv; type: ADME, organism-based; details: in vivo
[13] = Half life in Sprague-Dawley rat at 2.48 mg/kg, po; type: ADME, organism-based; design: dose 2.48 mg/kg, route oral; details: in vivo
[14] = Cmax in Sprague-Dawley rat at 2 mg/kg, po; type: ADME, organism-based; design: dose 2 mg/kg, route oral; details: in vivo
[15] = Tmax in Sprague-Dawley rat at 2 mg/kg, po or 0.5 mg/kg, iv; type: ADME, organism-based; details: in vivo
Rattus norvegicus [16] = assay: Oral bioavailability in Sprague-Dawley rat at 2 mg/kg, po; type: ADME, organism-based; details: in vivo
[17] = Clearance in Sprague-Dawley rat at 2 mg/kg, po or 0.5 mg/kg, iv; type: ADME, organism-based; details: in vivo
[18] = Half life in Sprague-Dawley rat at 2 mg/kg, po; type: ADME, organism-based; design: dose 2 mg/kg, route oral; details: in vivo
[19] = biological target: T1, Sulfonylurea receptor 1, Kir6.2; assay: Displacement of [3H]glibenclamide from human Kir6.2/SUR1 expressed in HEK293 cells in presence of 2 mM ATP; type: cell-based
[20] = biological target: T1, Sulfonylurea receptor 1, Kir6.2; assay: Displacement of [3H]glibenclamide from human Kir6.2/SUR1 expressed in HEK293 cells; type: cell-based
[21] = Cmax in Sprague-Dawley rat at 2.3 mg/kg, po; type: ADME, organism-based; design: dose 2.3 mg/kg, route oral; details: in vivo
[22] = Tmax in Sprague-Dawley rat at 2.3 mg/kg, po or 1.24 mg/kg, iv; type: ADME, organism-based; details: in vivo
[23] = Oral bioavailability in Sprague-Dawley rat at 2.3 mg/kg, po; type: ADME, organism-based; details: in vivo
[24] = Clearance in Sprague-Dawley rat at 2.3 mg/kg, po or 1.24 mg/kg, iv; type: ADME, organism-based; details: in vivo
[25] = Half life in Sprague-Dawley rat at 2.3 mg/kg, po; type: ADME, organism-based; design: dose 2.3 mg/kg, route oral; details: in vivo
[26] = Cmax in Sprague-Dawley rat at 1.89 mg/kg, po; type: ADME, organism-based; design: dose 1.89 mg/kg, route oral; details: in vivo
[27] = Tmax in Sprague-Dawley rat at 1.89 mg/kg, po or 0.89 mg/kg, iv; type: ADME, organism-based; details: in vivo
[28] = Oral bioavailability in Sprague-Dawley rat at 1.89 mg/kg, po; type: ADME, organism-based; details: in vivo
[29] = Clearance in Sprague-Dawley rat at 1.89 mg/kg, po or 0.89 mg/kg, iv; type: ADME, organism-based; details: in vivo
[30] = Half life in Sprague-Dawley rat at 1.89 mg/kg, po; type: ADME, organism-based; design: dose 1.89 mg/kg, route oral; details: in vivo
[31] = Cmax in Sprague-Dawley rat at 2.19 mg/kg, po; type: ADME, organism-based; design: dose 2.19 mg/kg, route oral; details: in vivo
[32] = Tmax in Sprague-Dawley rat at 2.19 mg/kg, po or 1.22 mg/kg, iv; type: ADME, organism-based; details: in vivo
[33] = Oral bioavailability in Sprague-Dawley rat at 2.19 mg/kg, po; type: ADME, organism-based; details: in vivo
[34] = Clearance in Sprague-Dawley rat at 2.19 mg/kg, po or 1.22 mg/kg, iv; type: ADME, organism-based; details: in vivo
[35] = Half life in Sprague-Dawley rat at 2.19 mg/kg, po; type: ADME, organism-based; design: dose 2.19 mg/kg, route oral; details: in vivo

| pEC50 (Beta-TC3) | pEC50 (Rattus norvegicus [4]) | pEC50 (Beta-TC6 [6]) | SMILES | Efficacy (Beta-TC6 [7]) [%] | also measured |
| --- | --- | --- | --- | --- | --- |
| 6.85 | 3.88 | 6.51 | CC1(NC2=NS(=O)(=O)c3sc(Br)cc3N2)CC1 | 81 | inhibition in vivo at 3 mg/kg (Rattus norvegicus [1]): 97%; ED50 (Rattus norvegicus [2]): < 3 mg/kg; pEC50 (Rattus norvegicus [3]): 7.70; pEC50 [5]: 6.80; concentration at 0.5 h [8]: 340 ng/mL; Cmax [9]: 885 ng/mL; Tmax [10]: 1.5 h; bioavailability [11]: 96%; clearance [12]: 15 mL/min/kg; half-life [13]: 2.6 h |
| 5.46 | 4.46 | 4.89 | C[C@H](NC1=NS(=O)(=O)c2sc(Cl)cc2N1)c1ccccc1 | 28 | Emax (Beta-TC3): < 60% |
| – | – | 6.55 | CC1(NC2=NS(=O)(=O)c3scc(Cl)c3N2)CC1 | 2 | EC50 (Beta-TC3): Not Active |
| 4.86 | – | 4.64 | CC1=Nc2ccc(Cl)cc2S(=O)(=O)N1 [DIAZOXIDE] | 25 | inhibition in vivo at 3 mg/kg (Rattus norvegicus [1]): 53%; ED50 (Rattus norvegicus [2]): > 30 mg/kg; pEC50 (Rattus norvegicus [3]): 4.69; Cmax [14]: 1450 ng/mL; Tmax [15]: 1 h; F (Rattus norvegicus [16]): 154%; clearance [17]: 8 mL/min/kg; half-life [18]: 1.32 h |
| 5.30 | < 3.52 | 4.70 | CC(C)NC1=NS(=O)(=O)c2cc(Cl)sc2N1 | 16 | – |
| 6.89 | 3.99 | 6.62 | CC(C)(NC1=NS(=O)(=O)c2sc(Cl)cc2N1)c1ccccc1 | 76 | pIC50 [19]: 7.09; pIC50 [20]: 3.44; inhibition in vivo at 3 mg/kg (Rattus norvegicus [1]): 86%; ED50 (Rattus norvegicus [2]): 4 mg/kg; pEC50 (Rattus norvegicus [3]): 7.40; pEC50 [5]: 6.74; Cmax [21]: 2590 ng/mL; Tmax [22]: 0.25 h; bioavailability [23]: 82%; clearance [24]: 7.3 mL/min/kg; half-life [25]: 0.867 h |
| – | – | 6.60 | CC1(NC2=NS(=O)(=O)c3sc(Cl)cc3N2)CC1 [TIFENAZOXIDE] | 73 | inhibition in vivo at 3 mg/kg (Rattus norvegicus [1]): 85%; ED50 (Rattus norvegicus [2]): 1.5 mg/kg; Cmax [26]: 1230 ng/mL; Tmax [27]: 0.5 h; bioavailability [28]: 103%; clearance [29]: 7.02 mL/min/kg; half-life [30]: 4.17 h |
| – | – | 6.13 | CN1C(NC2(C)CC2)=NS(=O)(=O)c2sc(Cl)cc21 | 23 | EC50 (Beta-TC3): Not Active |
| 6.80 | 4.86 | 4.87 | O=S1(=O)N=C(NC2(c3cccc(Cl)c3)CCC2)Nc2cc(Cl)sc21 | 40 | – |
| 7.70 | – | 7.70 | CC1(NC2=NS(=O)(=O)c3sc(Cl)cc3N2)CCC1 | 92 | – |
| – | – | 5.17 | CC1(NC2=NS(=O)(=O)c3scc(Br)c3N2)CC1 | 5 | EC50 (Beta-TC3): Not Active |
| 5.44 | 3.88 | 5.21 | O=S1(=O)NC(NCc2ccccc2)=Nc2cc(Cl)sc21 | 30 | Emax (Beta-TC3): < 60% |
| – | – | – | CC1(NC2=NS(=O)(=O)c3cc(Cl)sc3N2)CC1 | – | EC50 (Beta-TC3): Not Active |
| 6.32 | 3.74 | 5.57 | O=S1(=O)NC(NC2(c3ccccc3)CC2)=Nc2cc(Cl)sc21 | 66 | pEC50 (Rattus norvegicus [3]): 6.96; pEC50 [5]: 6.09 |
| 5.70 | 4.02 | 5.68 | C[C@H](NC1=NS(=O)(=O)c2sc(Cl)cc2N1)c1ccc(Br)cc1 | 69 | – |
| < 4.52 | 5.16 | 6.72 | CC1(NC2=NS(=O)(=O)c3sccc3N2)CC1 | 19 | Efficacy (Rattus norvegicus [4]): 18% |
| 6.40 | 4.40 | 5.85 | O=S1(=O)N=C(NC2(C(F)(F)F)CC2)Nc2cc(Cl)sc21 | 76 | inhibition in vivo at 3 mg/kg (Rattus norvegicus [1]): 90%; ED50 (Rattus norvegicus [2]): 8 mg/kg; pEC50 (Rattus norvegicus [3]): 6.80; pEC50 [5]: 6.28; Cmax [31]: 533 ng/mL; Tmax [32]: 0.5 h; bioavailability [33]: 70%; clearance [34]: 5 mL/min/kg; half-life [35]: 5.5 h |
| 6.30 | 5.54 | 5.45 | COc1ccc(C2(NC3=NS(=O)(=O)c4sc(Cl)cc4N3)CC2)cc1 | 69 | – |
| 6.30 | 4.62 | 6.00 | C[C@@H](NC1=NS(=O)(=O)c2sc(Cl)cc2N1)c1ccccc1 | 68 | – |
| 5.51 | 3.76 | 6.82 | O=S1(=O)N=C(NCC(F)(F)F)Nc2cc(Cl)sc21 | 36 | – |
